Data reported in patent US20060247305A1, “Chromen-4-one inhibitors of anti-apoptotic Bcl-2 family members and the uses thereof” (Regents of the University of Michigan, priority 2005, published 2006).
Read-outs that look alike come from different tables or passages of the source.

How the values were obtained:
[1] = target: T1, human Bcl-xL recombinant His-tagged protein (Homo sapiens, UniProt Q07817); assay: Bcl-xL fluorescence polarization-based competitive binding assay (Flu-Bak peptide); conditions: for Ki: FP assay, 60 nM Bcl-xL, 5 nM Flu-Bak peptide, Ki calculated from IC50; for fold decrease of binding affinity to Bcl-xL: relative to the parent analogue (15d compared with 15b; 15j: removal of the big hydrophobic group)
T1 construct: without the C-terminus hydrophobic tail; His

[2] = system: PC-3 prostate cancer cells; assay: Cell growth inhibition, MTT, PC-3 prostate cancer cells; type: cell-based, human; conditions: for IC50: Homo sapiens, 120 h, 5 days incubation, MTT cell viability, read-out: Cellular Activity IC50 (μM) PC3
Description: (§1) To test the effect of compounds of the present invention on inhibition of cell growth in human cancer cells, the compounds were administered to two different cancer cell lines. PC-3 prostate cancer cells and 2LMP breast cancer cells were each seeded in 96-well plates with increasing concentrations of inhibitor compounds. The cells were then incubated at 37° C. with 5% CO2 for 5 days, followed by detection of cell viability with MTT. Untreated cells were used as 100% growth.

2LMP breast cancer cells = assay: Cell growth inhibition, MTT, 2LMP breast cancer cells; type: cell-based, human; conditions: for IC50: Homo sapiens, 120 h, 5 days incubation, MTT cell viability, read-out: Cellular Activity IC50 (μM) 2LMP
Description: as §1

[3] = target: Bcl-2 recombinant His-fused soluble protein (Homo sapiens, UniProt P10415); assay: Bcl-2 fluorescence polarization-based competitive binding assay (Flu-Bid-21 peptide); conditions: for Ki: FP assay, 0.120 μM Bcl-2, 0.010 μM Flu-Bid-21, 4 hours incubation, Ki calculated from IC50, read-out: Binding Affinity Ki (μM) Bc1-2; for fold decrease of binding affinity to Bcl-2: relative to the parent analogue (15c, 15d compared with 15b; 15j: removal of the big hydrophobic group)
[4] = read-out: Binding Affinity Ki (μM) Bc1-xL

T1 sequence (Q07817 1-209 limits assumed): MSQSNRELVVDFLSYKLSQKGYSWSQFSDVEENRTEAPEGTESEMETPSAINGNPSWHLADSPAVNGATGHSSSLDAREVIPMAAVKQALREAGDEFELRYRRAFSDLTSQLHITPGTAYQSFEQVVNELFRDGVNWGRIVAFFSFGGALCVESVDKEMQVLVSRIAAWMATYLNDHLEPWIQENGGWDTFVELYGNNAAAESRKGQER
Bcl-2 recombinant His-fused soluble protein, sequence (P10415 whole entry, the tested form may be a part): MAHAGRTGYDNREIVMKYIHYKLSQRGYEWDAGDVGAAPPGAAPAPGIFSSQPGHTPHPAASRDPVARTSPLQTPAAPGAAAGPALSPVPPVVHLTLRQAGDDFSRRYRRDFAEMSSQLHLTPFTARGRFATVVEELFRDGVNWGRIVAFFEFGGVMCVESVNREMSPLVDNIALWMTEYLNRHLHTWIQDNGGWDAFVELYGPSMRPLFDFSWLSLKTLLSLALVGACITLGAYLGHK

SMILES	IC50 [2]	IC50 (2LMP breast cancer cells)	Ki [1, 4]	Ki [3]	fold decrease of binding affinity to Bcl-xL [1]	fold decrease of binding affinity to Bcl-2 [3]	Ki ([1]; Binding Affinity Ki (μM) Bc1-xL)	fold more potent than gossypol, cell growth inhibitory activity, PC3 ([2]; relative to gossypol)	fold more potent than gossypol, cell growth inhibitory activity, 2LMP (2LMP breast cancer cells; relative to gossypol)
Cc1cc2c(C(C)C)c(O)c(O)c(C=O)c2c(O)c1-c1c(C)cc2c(C(C)C)c(O)c(O)c(C=O)c2c1O [gossypol, reference compound]	9.7 µM	6 µM					1.97 ± 0.39 µM		
COc1c(OC)c(OC)c2c(=O)c(-c3ccc4cc(O)ccc4c3)c(C)oc2c1CC(C)C [Compound 15d, 3-(6-Hydroxy-naphthalen-2-yl)-8-isobutyl-5,6,7-trimethoxy-2-methyl-chromen-4-one]	20.6 µM	> 30 µM	> 14 µM	1.24 ± 0.13 µM	more than 10 fold	more than 10 fold			
Cc1oc2c(CC(C)C)c(O)c(O)c(O)c2c(=O)c1-c1ccccc1 [Compound 15f, 5,6,7-Trihydroxy-8-isobutyl-2-methyl-3-phenyl-chromen-4-one]	23.7 µM	9.3 µM	4.27 ± 0.84 µM	0.79 ± 0.03 µM					
Cc1oc2c(CC(C)C)c(O)c(O)c(O)c2c(=O)c1-c1ccc2ccccc2c1 [Compound 15c, 5,6,7-Trihydroxy-8-isobutyl-2-methyl-3-naphthalen-2-yl-chromen-4-one]	3.62 µM	2.08 µM	2.32 ± 0.26 µM	0.39 ± 0.17 µM		about 2 fold			
CCOc1ccc2cc(-c3c(C)oc4c(CC(C)C)c(OC)c(OC)c(OC)c4c3=O)ccc2c1 [Compound 15e, 3-(6-Ethoxy-naphthalen-2-yl)-8-isobutyl-5,6,7-trimethoxy-2-methyl-chromen-4-one]			> 14 µM	> 12 µM					

Further lines, with some results ahead:

IC50 [2]	IC50 (2LMP breast cancer cells)	Ki [1, 4]	Ki [3]	fold decrease of binding affinity to Bcl-xL [1]	fold decrease of binding affinity to Bcl-2 [3]	SMILES	Ki ([1]; Binding Affinity Ki (μM) Bc1-xL)	fold more potent than gossypol, cell growth inhibitory activity, PC3 ([2]; relative to gossypol)	fold more potent than gossypol, cell growth inhibitory activity, 2LMP (2LMP breast cancer cells; relative to gossypol)
3.09 µM	1.44 µM	1.78 ± 0.13 µM	0.13 ± 0.01 µM			Cc1oc2c(CC(C)C)c(O)c(O)c(O)c2c(=O)c1-c1ccc2c(C)c(O)ccc2c1 [Compound 15a, 5,6,7-Trihydroxy-3-(6-hydroxy-5-methyl-naphthalen-2-yl)-8-isobutyl-2-methyl-chromen-4-one]			
5.07 µM	2.55 µM	1.71 ± 0.22 µM	0.17 ± 0.02 µM			Cc1oc2c(CC(C)C)c(O)c(O)c(O)c2c(=O)c1-c1ccc2cc(O)ccc2c1 [Compound 15b, 5,6,7-Trihydroxy-3-(6-hydroxy-naphthalen-2-yl)-8-isobutyl-2-methyl-chromen-4-one]			
20.1 µM	> 30 µM	> 14 µM	4.63 ± 0.16 µM	more than 10 fold	> 50 fold	Cc1cc(=O)c2c(O)c(O)c(O)c(CC(C)C)c2o1 [Compound 15j, 5,6,7-Trihydroxy-8-isobutyl-2-methyl-chromen-4-one]			
1.82 µM	1.54 µM	1.49 µM	0.088 µM			Cc1oc2c(CC(C)C)c(O)c(O)c(O)c2c(=O)c1-c1ccc2c(C(C)C)c(O)ccc2c1 [Compound 2, 5,6,7-Trihydroxy-3-(6-hydroxy-5-isopropyl-naphthalen-2-yl)-8-isobutyl-2-methyl-chromen-4-one]		3 to 4 fold	3 to 4 fold
